This is an account of results in patent US20240025883A1, “PYRIMIDIN-2-YL SULFONAMIDE DERIVATIVES” (Hoffmann-La Roche Inc., priority 2021, published 2024).

Molecules are shown by their SMILES.

human GPR17 short isoform, sequence (Q13304 29-367): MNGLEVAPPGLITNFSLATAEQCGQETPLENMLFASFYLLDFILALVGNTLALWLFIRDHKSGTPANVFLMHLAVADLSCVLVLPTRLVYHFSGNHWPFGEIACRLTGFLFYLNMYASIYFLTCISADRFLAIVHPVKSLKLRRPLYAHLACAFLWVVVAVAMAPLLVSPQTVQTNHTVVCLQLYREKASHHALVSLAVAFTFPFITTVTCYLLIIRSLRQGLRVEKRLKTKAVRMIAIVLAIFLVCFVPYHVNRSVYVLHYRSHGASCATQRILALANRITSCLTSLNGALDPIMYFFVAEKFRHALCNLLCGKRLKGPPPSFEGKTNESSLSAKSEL

The test deals with human GPR17 short isoform (Homo sapiens (Human), UniProt Q13304). The test is described as follows: GPR17 cAMP assay (hGPR17 cAMP, antagonist mode against EC80 of MDL29,951). As to conditions: CHO-K1 cells stably expressing human GPR17 short isoform; EC80 of agonist MDL29,951; forskolin 15 μM. Type of test: cell-based. In outline:
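cAMP was read by competitive TR-FRET after a 30 min room-temperature stimulation: antagonists plus EC80 MDL29,951 and 0.5 mM IBMX, followed 5 min later by 15 μM forskolin. Cells were CHO-K1 with stable human GPR17 short isoform in HBSS/HEPES/BSA, pH 7.4; percent activity versus reference antagonist fitted sigmoidally.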
(cAMP levels reflect the balance of adenylyl cyclase and phosphodiesterase activity.)
What is called IC50 is the midpoint of a concentration-inhibition curve. Lower therefore signals inhibition by little substance. Regarding `COc1nc(NS(=O)(=O)c2c[nH]c3c(F)c(Cl)ccc23)nc(OC)c1OC(F)F` [Example 125, 6-chloro-N-[5-(difluoromethoxy)-4,6-dimethoxy-pyrimidin-2-yl]-7-fluoro-1H-indole-3-sulfonamide], the IC50 came out at 23 nM.
The molecule `COc1nc(NS(=O)(=O)c2c[nH]c3nc(C(F)F)ccc23)nc(OC)c1CCC(F)F` [Example 98, 6-(difluoromethyl)-N-[5-(3,3-difluoropropyl)-4,6-dimethoxy-pyrimidin-2-yl]-1H-pyrrolo[2,3-b]pyridine-3-sulfonamide] returned an IC50 of 25 nM.
In the case of `COc1nc(NS(=O)(=O)c2c[nH]c3nc(Br)ccc23)nc(OC)c1OCC(F)F` [Example 202, 6-bromo-N-[5-(2,2-difluoroethoxy)-4,6-dimethoxy-pyrimidin-2-yl]-1H-pyrrolo[2,3-b]pyridine-3-sulfonamide], the half-maximal inhibitory concentration (IC50) stood at 28 nM.
Molecule `CCc1nc(NS(=O)(=O)c2c[nH]c3cc(Cl)ccc23)nc(OC)c1OCC(F)F` [Example 77, 6-chloro-N-[5-(2,2-difluoroethoxy)-4-ethyl-6-methoxy-pyrimidin-2-yl]-1H-indole-3-sulfonamide] showed a half-inhibitory concentration (IC50) of 148 nM.
Next, `COc1nc(NS(=O)(=O)c2c[nH]c3cc(Cl)ccc23)ncc1OC(F)F` [Example 8, 6-chloro-N-[5-(difluoromethoxy)-4-methoxy-pyrimidin-2-yl]-1H-indole-3-sulfonamide]: 182 nM; `COc1nc(NS(=O)(=O)c2c[nH]c3nc(C(F)F)ccc23)nc(OC)c1OC(F)F` [Example 94, N-[5-(difluoromethoxy)-4,6-dimethoxy-pyrimidin-2-yl]-6-(difluoromethyl)-1H-pyrrolo[2,3-b]pyridine-3-sulfonamide]: 76 nM; `COc1nc(NS(=O)(=O)c2csc3cc(Cl)ccc23)ncc1CCC#N` [Example 156, 6-chloro-N-[5-(2-cyanoethyl)-4-methoxy-pyrimidin-2-yl]benzothiophene-3-sulfonamide]: 92 nM.
The molecule `COc1nc(NS(=O)(=O)c2c[nH]c3cc(C(C)(C)O)ccc23)ncc1CC(F)F` [Example 274, N-[5-(2,2-difluoroethyl)-4-methoxy-pyrimidin-2-yl]-6-(1-hydroxy-1-methyl-ethyl)-1h-indole-3-sulfonamide] yielded a concentration for half-maximal inhibition (IC50) of 237 nM.
Next, `COc1nc(NS(=O)(=O)c2c[nH]c3c(C)c(Cl)ccc23)ncc1CC(F)F` [Example 192, 6-chloro-N-[5-(2,2-difluoroethyl)-4-methoxy-pyrimidin-2-yl]-7-methyl-1H-indole-3-sulfonamide]: 20 nM; `CCc1ccc2c(S(=O)(=O)Nc3ncc(CC(F)F)c(OC)n3)c[nH]c2c1` [Example 152, N-[5-(2,2-difluoroethyl)-4-methoxy-pyrimidin-2-yl]-6-ethyl-1H-indole-3-sulfonamide]: 104 nM; `COc1nc(NS(=O)(=O)c2c[nH]c3c(F)c(Br)ccc23)ncc1CC(F)F` [Example 191, 6-bromo-N-[5-(2,2-difluoroethyl)-4-methoxy-pyrimidin-2-yl]-7-fluoro-1H-indole-3-sulfonamide]: 33 nM.
Next, `COc1nc(NS(=O)(=O)c2c[nH]c3nc(C)ccc23)nc(OC)c1OCC(F)F` [Example 285, N-[5-(2,2-Difluoroethoxy)-4,6-Dimethoxy-Pyrimidin-2-Yl]-6-Methyl-1H-Pyrrolo[2,3-b]Pyridine-3-Sulfonamide]: 117 nM; `CC#CCOc1cnc(NS(=O)(=O)c2c[nH]c3cc(Cl)ccc23)nc1OC` [Example 175, N-(5-but-2-ynoxy-4-methoxy-pyrimidin-2-yl)-6-chloro-1H-indole-3-sulfonamide]: 73 nM.
Next, `COc1nc(NS(=O)(=O)c2csc3cc(Br)ccc23)ncc1OC(F)F` [Example 268, 6-bromo-N-[5-(difluoromethoxy)-4-methoxy-pyrimidin-2-yl]benzothiophene-3-Sulfonamide]: 165 nM; `COc1nc(NS(=O)(=O)c2c[nH]c3c(C)c(Br)ccc23)ncc1CC(F)F` [Example 184, 6-bromo-N-[5-(2,2-difluoroethyl)-4-methoxy-pyrimidin-2-yl]-7-methyl-1H-indole-3-sulfonamide]: 29 nM; `COc1nc(NS(=O)(=O)c2c[nH]c3c(Br)cccc23)nc(OC)c1CC(F)F` [Example 134, 7-bromo-N-[5-(2,2-difluoroethyl)-4,6-dimethoxy-pyrimidin-2-yl]-1H-indole-3-sulfonamide]: 124 nM.
`COc1nc(NS(=O)(=O)c2c[nH]c3cc(Cl)ccc23)nc(OC(F)F)c1C` [Example 72, 6-chloro-N-[4-(difluoromethoxy)-6-methoxy-5-methyl-pyrimidin-2-yl]-1H-indole-3-sulfonamide] displayed an IC50 of 40 nM.
`COc1nc(NS(=O)(=O)c2c[nH]c3cc(OC(F)F)ccc23)ncc1CC(F)F` [Example 104, N-[5-(2,2-difluoroethyl)-4-methoxy-pyrimidin-2-yl]-6-(difluoromethoxy)-1H-indole-3-sulfonamide]: the IC50 amounted to 209 nM.
Turning to `C=CCc1c(OC)nc(NS(=O)(=O)c2c[nH]c3cc(Cl)ccc23)nc1OC` [Example 56, N-(5-allyl-4,6-dimethoxy-pyrimidin-2-yl)-6-chloro-1H-indole-3-sulfonamide], the IC50 was determined as 13 nM.
Next, `COc1nc(NS(=O)(=O)c2c[nH]c3cc(Cl)ccc23)nc(OCCF)c1Br` [Example 14, N-[5-bromo-4-(2-fluoroethoxy)-6-methoxy-pyrimidin-2-yl]-6-chloro-1H-indole-3-sulfonamide]: 215 nM; `COc1nc(NS(=O)(=O)c2c[nH]c3c4c(ccc23)COC4)nc(OC)c1CC(F)F` [Example 229, N-[5-(2,2-difluoroethyl)-4,6-dimethoxy-pyrimidin-2-yl]-6,8-dihydro-1H-fur[3,4-g]indole-3-sulfonamide]: 27 nM.
`COc1nc(NS(=O)(=O)c2c[nH]c3nc(Cl)ccc23)nc(OC)c1OCC(F)F` [Example 206, 6-chloro-N-[5-(2,2-difluoroethoxy)-4,6-dimethoxy-pyrimidin-2-yl]-1H-pyrrolo[2,3-b]pyridine-3-sulfonamide] yielded an IC50 of 57 nM.
Next, `COc1nc(NS(=O)(=O)c2c[nH]c3cc(F)ccc23)nc(OC)c1CC(F)F` [Example 258, N-[5-(2,2-difluoroethyl)-4,6-dimethoxy-pyrimidin-2-yl]-6-fluoro-1H-indole-3-sulfonamide]: 37 nM; `COc1nc(NS(=O)(=O)c2c[nH]c3c(Br)c(F)ccc23)ncc1CC(F)F` [Example 128, 7-bromo-N-[5-(2,2-difluoroethyl)-4-methoxy-pyrimidin-2-yl]-6-fluoro-1H-indole-3-sulfonamide]: 446 nM; `COc1nc(NS(=O)(=O)c2c[nH]c3c(F)c(C(F)F)ccc23)nc(OC)c1CCC#N` [Example 252, N-[5-(2-cyanoethyl)-4,6-dimethoxy-pyrimidin-2-yl]-6-(difluoromethyl)-7-fluoro-1H-indole-3-sulfonamide]: 14 nM.
Next, `COc1nc(NS(=O)(=O)c2c[nH]c3cc(C4CC4)ccc23)ncc1CC(F)F` [Example 254, 6-cyclopropyl-N-[5-(2,2-difluoroethyl)-4-methoxy-pyrimidin-2-yl]-1H-indole-3-sulfonamide]: 75 nM; `COc1nc(NS(=O)(=O)c2c[nH]c3c(OC)c(Cl)ccc23)ncc1CC(F)F` [Example 186, 6-chloro-N-[5-(2,2-difluoroethyl)-4-methoxy-pyrimidin-2-yl]-7-methoxy-1H-indole-3-sulfonamide]: 13 nM.
Next, `COc1nc(NS(=O)(=O)c2c[nH]c3c(F)c(C(F)F)ccc23)nc(OC)c1OCC#N` [Example 253, N-[5-(cyanomethoxy)-4,6-dimethoxy-pyrimidin-2-yl]-6-(difluoromethyl)-7-fluoro-1H-indole-3-sulfonamide]: 20 nM; `COc1nc(NS(=O)(=O)c2c[nH]c3nc(Br)ccc23)nc(OC)c1CCC(F)F` [Example 112, 6-bromo-N-[5-(3,3-difluoropropyl)-4,6-dimethoxy-pyrimidin-2-yl]-1H-pyrrolo[2,3-b]pyridine-3-sulfonamide]: 16 nM.
Regarding `COc1nc(NS(=O)(=O)c2c[nH]c3nc(Cl)ccc23)nc(OC)c1C` [Example 118, 6-chloro-N-(4,6-dimethoxy-5-methyl-pyrimidin-2-yl)-1H-pyrrolo[2,3-b]pyridine-3-sulfonamide], the IC50 was found to be 33 nM.
The molecule `COc1nc(NS(=O)(=O)c2c[nH]c3c(Cl)c(Cl)ccc23)ncc1CC(F)F` [Example 210, 6,7-dichloro-N-[5-(2,2-difluoroethyl)-4-methoxy-pyrimidin-2-yl]-1H-indole-3-sulfonamide] registered a half-inhibitory concentration (IC50) of 18 nM.
Molecule `COc1nc(NS(=O)(=O)c2c[nH]c3nc(Cl)ccc23)ncc1OCC(F)F` [Example 170, 6-chloro-N-[5-(2,2-difluoroethoxy)-4-methoxy-pyrimidin-2-yl]-1H-pyrrolo[2,3-b]pyridine-3-sulfonamide] registered an IC50 of 162 nM.
`COc1nc(NS(=O)(=O)c2c[nH]c3c(C#N)c(Cl)ccc23)ncc1OCCF` [Example 280, 6-Chloro-7-Cyano-N-[5-(2-Fluoroethoxy)-4-Methoxy-Pyrimidin-2-Yl]-1H-Indole-3-Sulfonamide] returned an IC50 of 62 nM.
Molecule `COc1nc(NS(=O)(=O)c2c[nH]c3c2ccc2cccnc23)nc(OC)c1OC(F)F` [Example 116, N-[5-(difluoromethoxy)-4,6-dimethoxy-pyrimidin-2-yl]-1H-pyrrolo[3,2-h]quinoline-3-sulfonamide] gave an IC50 of 26 nM.
Next, `COc1nc(NS(=O)(=O)c2c[nH]c3nc(Br)ccc23)nc(OC)c1CC(F)CF` (centres unmarked) [Example 288, 6-Bromo-N-[5-(2,3-Difluoropropyl)-4,6-Dimethoxy-Pyrimidin-2-Yl]-1H-Pyrrolo[2,3-b]Pyridine-3-Sulfonamide]: 57 nM.
